Values quoted from earlier work in article PMC11579209, “Population pharmacokinetics and exposure–response relationships of maribavir in transplant recipients with cytomegalovirus infection” (Journal of Pharmacokinetics and Pharmacodynamics, 2024).

Legend:
CMV = tested on: CMV; parameters: method as in PMID 34674258; details: through Week 24 or Week 14; cited from earlier work
[1] = parameters: method as in PMID 12654667, doi:10.1016/j.bbmt.2018.12.600; details: metabolite of maribavir; cited from earlier work

Structure (SMILES)	Exposure dependency of clinically significant CMV infection (CS-CMVi) (CMV)	Pharmacological activity of metabolite [1]
COc1cccc(N2CCN(C3=Nc4c(F)cccc4[C@H](CC(=O)O)N3c3cc(C(F)(F)F)ccc3OC)CC2)c1 [letermovir]	no significant exposure dependencies	
Nc1nc2cc(Cl)c(Cl)cc2n1[C@H]1O[C@@H](CO)[C@H](O)[C@@H]1O [VP44469]		pharmacologically inactive
